Results published in patent US20240246950A1, “Anilino-Pyrazole Derivatives, Compositions and Methods Thereof” (Ensem Therapeutics, priority 2022, published 2024).
Where two headings read alike, the source gives them in different places.

How the values were obtained:
[1] = biological target: CDK1/cyclinB (Homo sapiens, UniProt P06493); assay: In vitro kinase TR-FRET assay CDK1/cyclinB; type: biochemical; conditions: enzyme 0.3 nM, ATP 56 μM
Summary of the method: (§1)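 Enzymes at 3 nM (CDK2/CycA2), 0.6 nM (CDK2/CycE1), 0.3 nM (CDK1/cyclinB), 0.6 nM (GSK3β) with ATP at 27, 82, 56, 7.6 μM respectively, 50 nM ULight-4E-BP1 peptide, HEPES pH7.5; 10-point 3-fold dilutions. 1 h reaction at room temperature; Eu-anti-phospho-4E-BP1 TR-FRET (665/615 nm) read; IC50 from dose-response curves.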

[2] = biological target: CDK2/CycA2 (Homo sapiens, UniProt P24941); assay: In vitro kinase TR-FRET assay CDK2/CycA2; type: biochemical; conditions: enzyme 3 nM, ATP 27 μM, read-out: CDK2 cyclinA2 activity assay: IC50
Summary of the method: as §1

[3] = biological target: CDK2/CycE1 (Homo sapiens, UniProt P24941); assay: In vitro kinase TR-FRET assay CDK2/CycE1; type: biochemical; conditions: enzyme 0.6 nM, ATP 82 μM, read-out: CDK2 cyclinE1 activity assay: IC50
Summary of the method: as §1

[4] = biological target: GSK3β (Homo sapiens, UniProt P49841); assay: In vitro kinase TR-FRET assay GSK3β; type: biochemical; conditions: enzyme 0.6 nM, ATP 7.6 μM
Summary of the method: as §1

[5] = test system: OVCAR3; assay: Cell proliferation (CyQUANT) OVCAR3; type: cell-based; conditions: OVCAR3, 7 days, read-out: Anti-proliferation assay: IC50 (nM) [Cell Line: OVCAR3]
Method: (§2) Cancer cell lines, namely, OVCAR3, TOV21G were seeded onto 96 well cell culture plates at a density of 2500, 1000 or 3000 cells/well, respectively and cultured overnight. Cells treated with test compounds at 3-fold dose titration for 7 days at maximum final DMSO concentration of 0.01%. The CyQUANT® Cell Proliferation Assay, a highly sensitive fluorescence-based method for quantifying cells and assessing cell proliferation and cytotoxicity was employed, following manufacturer's procedure (ThermnoFisher, Cataloge #C35012). Plates were scanned with a laser-based Acumen Cellistra instrument by TTP LabTech at Ex/Em 480/520 nm. % Inhibition is calculated based on DMSO control wells on the same plate (ie, DMSO wells have 100% growth and 0% growth inhibition).

[6] = test system: TOV21G; assay: Cell proliferation (CyQUANT) TOV21G; type: cell-based; conditions: 7 days, read-out: Anti-proliferation assay: IC50 (nM) [Cell Line: TOV21G]
Method: as §2

CDK1/cyclinB, sequence (P06493 whole entry): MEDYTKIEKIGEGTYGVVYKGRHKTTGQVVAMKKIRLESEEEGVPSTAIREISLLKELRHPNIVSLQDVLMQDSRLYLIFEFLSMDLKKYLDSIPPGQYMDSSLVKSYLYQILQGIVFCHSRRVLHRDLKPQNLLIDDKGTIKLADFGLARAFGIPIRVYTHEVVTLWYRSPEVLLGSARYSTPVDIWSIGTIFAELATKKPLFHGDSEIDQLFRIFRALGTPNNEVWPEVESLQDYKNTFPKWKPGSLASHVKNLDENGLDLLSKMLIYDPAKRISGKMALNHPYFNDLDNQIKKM
CDK1/cyclinB, sequence (P14635 whole entry partner): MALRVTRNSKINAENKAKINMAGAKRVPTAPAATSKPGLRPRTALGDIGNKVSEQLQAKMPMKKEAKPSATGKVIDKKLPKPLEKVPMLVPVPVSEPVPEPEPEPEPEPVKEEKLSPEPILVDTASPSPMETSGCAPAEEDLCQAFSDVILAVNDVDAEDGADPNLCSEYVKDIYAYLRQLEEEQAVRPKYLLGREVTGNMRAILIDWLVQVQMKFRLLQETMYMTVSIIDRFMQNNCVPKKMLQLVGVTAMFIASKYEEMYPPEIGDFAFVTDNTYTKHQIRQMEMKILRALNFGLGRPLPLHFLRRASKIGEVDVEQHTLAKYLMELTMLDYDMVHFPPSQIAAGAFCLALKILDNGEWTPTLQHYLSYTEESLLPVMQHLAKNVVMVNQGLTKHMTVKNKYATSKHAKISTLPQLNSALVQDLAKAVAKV
GSK3β, sequence (P49841 whole entry, species assumed): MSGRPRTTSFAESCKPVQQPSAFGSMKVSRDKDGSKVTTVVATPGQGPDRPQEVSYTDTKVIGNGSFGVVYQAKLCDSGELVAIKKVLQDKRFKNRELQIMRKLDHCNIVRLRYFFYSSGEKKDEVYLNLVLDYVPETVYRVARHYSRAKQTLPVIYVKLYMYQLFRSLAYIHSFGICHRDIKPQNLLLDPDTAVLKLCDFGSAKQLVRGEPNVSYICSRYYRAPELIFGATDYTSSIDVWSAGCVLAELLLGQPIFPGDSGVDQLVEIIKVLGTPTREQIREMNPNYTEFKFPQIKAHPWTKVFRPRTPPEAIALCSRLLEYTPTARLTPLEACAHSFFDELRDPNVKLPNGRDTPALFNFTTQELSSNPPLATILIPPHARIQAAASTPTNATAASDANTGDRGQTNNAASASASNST

Row | SMILES | IC50 [1] [nM] | IC50 [2] [nM] | IC50 [3] [nM] | IC50 [4] [nM] | IC50 ([5]; Homo sapiens, OVCAR-3, 168 h) [nM] | IC50 [5] [nM] | IC50 ([6]; Homo sapiens, 168 h) [nM] | IC50 [6] [nM]
1 | CC(C)NC(=O)O[C@H]1C[C@@H](c2cc(Nc3ccc4c(c3)CS(=O)(=O)C4)n[nH]2)C1 [Example 28, (1s,3s)-3-(3-((2,2-dioxido-1,3-dihydrobenzo[c]thiophen-5-yl)amino)-1H-pyrazol-5-yl)cyclobutyl isopropylcarbamate] | < 50 | < 50 | < 50 | 50 to 500 | ≤ 500 | – | ≤ 500 | –
2 | CC(C)NC(=O)O[C@@H]1CC[C@H](c2cc(Nc3ccc(Cl)c4c3CCS4(=O)=O)n[nH]2)C1 [Example 64, (1R,3S)-3-(3-((7-chloro-1,1-dioxido-2,3-dihydrobenzo[b]thiophen-4-yl)amino)-1H-pyrazol-5-yl)cyclopentyl isopropylcarbamate] | 50 to 500 | < 50 | < 50 | 50 to 500 | ≤ 500 | – | ≥ 1000 | –
3 | CC(C)NC(=O)O[C@@H]1CC[C@H](c2cc(Nc3ccc4c(c3)CCCS4(=O)=O)n[nH]2)C1 [Example 26, (1R,3S)-3-(3-((1,1-dioxidothiochroman-6-yl)amino)-1H-pyrazol-5-yl)cyclopentyl isopropylcarbamate] | 50 to 500 | < 50 | < 50 | 50 to 500 | ≤ 500 | – | ≥ 1000 | –
4 | CC(C)NC(=O)O[C@@H]1CC[C@H](c2cc(Nc3cccc4c3CCS4(=O)=O)n[nH]2)C1 [Example 36, (1R,3S)-3-(3-((1,1-dioxido-2,3-dihydrobenzo[b]thiophen-4-yl)amino)-1H-pyrazol-5-yl)cyclopentyl isopropylcarbamate] | 50 to 500 | < 50 | < 50 | 50 to 500 | ≤ 500 | – | ≤ 500 | –
5 | CC(C)NC(=O)O[C@@H]1CC[C@H](c2cc(Nc3ccc(Cl)c4c3CCCS4(=O)=O)n[nH]2)C1 [Example 58, (1R,3S)-3-(3-((8-chloro-1,1-dioxidothiochroman-5-yl)amino)-1H-pyrazol-5-yl)cyclopentyl isopropylcarbamate] | 50 to 500 | < 50 | < 50 | 500 to 1000 | ≤ 500 | – | ≥ 1000 | –
6 | CC(C)NC(=O)O[C@@H]1CC[C@H](c2cc(Nc3ccc(F)c4c3CCS4(=O)=O)n[nH]2)C1 [Example 50, (1R,3S)-3-{5-[(7-fluoro-1,1-dioxo-2,3-dihydro-1λ^6-benzothiophen-4-yl)amino]-2H-pyrazol-3-yl}cyclopentyl (prop-2-ylamino)methanoate] | 50 to 500 | < 50 | < 50 | 50 to 500 | ≤ 500 | – | ≤ 500 | –
7 | CC(C)NC(=O)O[C@@H]1CC[C@H](c2cc(Nc3ccc(F)c4c3CN(C)S4(=O)=O)n[nH]2)C1 [Example 67, (1R,3S)-3-{5-[(7-fluoro-2-methyl-1,1-dioxo-2,3-dihydro-1λ^6-benzo[2,1-d][1,2]thiazol-4-yl)amino]-2H-pyrazol-3-yl}cyclopentyl (prop-2-ylamino)methanoate] | 50 to 500 | < 50 | < 50 | > 1000 | ≤ 500 | – | ≥ 1000 | –
8 | CC(C)NC(=O)O[C@H]1CC[C@@H](c2cc(Nc3ccc4c(c3)CS(=O)(=O)C4)n[nH]2)CC1 [Example 33, (1s,4s)-4-(3-((2,2-dioxido-1,3-dihydrobenzo[c]thiophen-5-yl)amino)-1H-pyrazol-5-yl)cyclohexyl isopropylcarbamate] | < 50 | < 50 | < 50 | > 1000 | ≤ 500 | – | ≤ 500 | –
9 | CC(C)NC(=O)O[C@@H]1CC[C@H](c2cc(Nc3ccc4c(c3)CC(F)(F)C4)n[nH]2)C1 [Example 32, (1R,3S)-3-(3-((2,2-difluoro-2,3-dihydro-1H-inden-5-yl)amino)-1H-pyrazol-5-yl)cyclopentyl isopropylcarbamate] | 50 to 500 | < 50 | < 50 | 500 to 1000 | ≤ 500 | – | ≥ 1000 | –

Second part, led by results:

Row | IC50 [1] [nM] | IC50 [2] [nM] | IC50 [3] [nM] | IC50 [4] [nM] | IC50 ([5]; Homo sapiens, OVCAR-3, 168 h) [nM] | IC50 [5] [nM] | SMILES | IC50 ([6]; Homo sapiens, 168 h) [nM] | IC50 [6] [nM]
10 | < 50 | < 50 | < 50 | 50 to 500 | ≤ 500 | – | CC(C)NC(=O)O[C@@H]1CC[C@H](c2cc(Nc3ccc(F)c4c3CNS4(=O)=O)[nH]n2)C1 [Example 66, (1R,3S)-3-(5-((7-fluoro-1,1-dioxido-2,3-dihydrobenzo[d]isothiazol-4-yl)amino)-1H-pyrazol-3-yl)cyclopentyl isopropylcarbamate] | ≥ 1000 | –
11 | 50 to 500 | < 50 | < 50 | > 1000 | – | ≤ 500 | CC(C)NC(=O)O[C@H]1CC[C@@H](c2cc(Nc3ccc4c(c3)CNS4(=O)=O)n[nH]2)CC1 [Example 7, (1s,4s)-4-{3-[(1,1-dioxo-2,3-dihydro-1λ^6,2-benzothiazol-5-yl)amino]-1H-pyrazol-5-yl}cyclohexyl N-(propan-2-yl)carbamate] | – | ≥ 1000
12 | < 50 | < 50 | < 50 | 50 to 500 | – | ≤ 500 | CC(C)NC(=O)O[C@@H]1CC[C@H](c2cc(Nc3ccc4c(c3)N(C)CNS4(=O)=O)n[nH]2)C1 [Example 12, (1R,3S)-3-{3-[(4-methyl-1,1-dioxo-3,4-dihydro-2H-1λ^6,2,4-benzothiadiazin-6-yl)amino]-1H-pyrazol-5-yl}cyclopentyl N-(propan-2-yl)carbamate] | – | ≥ 1000
13 | < 50 | < 50 | < 50 | > 1000 | ≤ 500 | – | CC(C)NC(=O)O[C@@H]1CC[C@H](c2cc(Nc3ccc4c(c3)NS(=O)(=O)C4)n[nH]2)C1 [Example 38, (1R,3S)-3-(3-((2,2-dioxido-1,3-dihydrobenzo[c]isothiazol-6-yl)amino)-1H-pyrazol-5-yl)cyclopentyl isopropylcarbamate] | ≥ 1000 | –
14 | 50 to 500 | < 50 | < 50 | 50 to 500 | ≤ 500 | – | CC(C)NC(=O)O[C@@H]1CC[C@H](c2cc(Nc3cccc4c3CCN(C)S4(=O)=O)[nH]n2)C1 [Example 56, (1R,3S)-3-{5-[(2-methyl-1,1-dioxo-3,4-dihydro-2H-1λ6-benzo[2,1-e][1,2]thiazin-5-yl)amino]-1H-pyrazol-3-yl}cyclopentyl (prop-2-ylamino)methanoate] | ≥ 1000 | –
15 | > 1000 | < 50 | < 50 | 500 to 1000 | ≥ 1000 | – | CC(C)NC(=O)O[C@@H]1CC[C@H](c2cc(Nc3ccc4c(c3)C(=O)NS4(=O)=O)[nH]n2)C1 [Example 5, (1R,3S)-3-(5-((1,1-dioxido-3-oxo-2,3-dihydrobenzo[d]isothiazol-5-yl)amino)-1H-pyrazol-3-yl)cyclopentyl isopropylcarbamate] | ≥ 1000 | –
16 | < 50 | < 50 | < 50 | 500 to 1000 | ≤ 500 | – | CC(C)NC(=O)O[C@@H]1CC[C@H](c2cc(Nc3ccc4c(c3)CS(=O)(=O)C4)n[nH]2)C1 [Example 22, (1R,3S)-3-(3-((2,2-dioxido-1,3-dihydrobenzo[c]thiophen-5-yl)amino)-1H-pyrazol-5-yl)cyclopentyl isopropylcarbamate] | ≤ 500 | –
17 | 50 to 500 | < 50 | < 50 | > 1000 | ≤ 500 | – | CC(C)NC(=O)O[C@@H]1CC[C@H](c2cc(Nc3cccc4c3CS(=O)(=O)C4)n[nH]2)C1 [Example 40, (1R,3S)-3-{5-[(2,2-dioxo-1,3-dihydro-2λ^6-benzo[c]thiophen-4-yl)amino]-2H-pyrazol-3-yl}cyclopentyl (prop-2-ylamino)methanoate] | ≥ 1000 | –
18 | 50 to 500 | < 50 | < 50 | 500 to 1000 | ≤ 500 | – | CC(C)NC(=O)O[C@@H]1CC[C@H](c2cc(Nc3ccc4c(c3)N(C)S(=O)(=O)C4)n[nH]2)C1 [Example 41, (1R,3S)-3-{5-[(1-methyl-2,2-dioxo-1,3-dihydro-2X^6-benzo[2,1-c][1,2]thiazol-6-yl)amino]-2H-pyrazol-3-yl}cyclopentyl (prop-2-ylamino)methanoate] | ≤ 500 | –
